These results are taken from ChEMBL document CHEMBL3507680, “University of Dundee, Gates Library screen for HepG2 cell viability”.

The nature of the data set: Human HepG2 cell viability assay in 384 well format. The data set is classed as toxicity, cell-based. Also on record: dose 125 nL, time 70.5 hour; cytotoxicity at 70.5 h: concentration not given beside the values. The note with it: HepG2 cells, read-out: Inhibition.
Consider `CN(C)c1ncnc2c1CCN(CC1CCOC1)CC2` (stereo unspecified), for which the cytotoxicity at 70.5 h is -14.4%.

Take `Cc1n[nH]cc1C(=O)N1CCCC(n2nnc3cc(F)ccc32)C1` (stereo unspecified): the cytotoxicity at 70.5 h was -12.2%.

For `CCN(CC1CCOC1)C(=O)Nc1ccc(N2CCCC2)nc1` (stereo unspecified), the cytotoxicity at 70.5 h was -0.947%.

Consider `CCOc1cccnc1C(=O)N1CC=C(c2ccc(O)cc2)CC1`, for which the cytotoxicity at 70.5 h was -7.65%.

As to `CC(C)CN1CCc2[nH]cnc2C12CCN(C(=O)c1cnn(C)c1)CC2`, the cytotoxicity at 70.5 h was -7.51%.

As for `CC(C)N1CCC(CC(=O)NCc2cc(O)ncn2)CC1`, the cytotoxicity at 70.5 h is -2.08%.

`CC(=O)N1CC(=O)N(c2ccsc2)CC12CCN(Cc1ccccn1)C2` (stereo unspecified): the cytotoxicity at 70.5 h was -6.8%.

On to `COc1ccccc1OCCCN1CC=C(c2cnn(C)c2)CC1`, for which the cytotoxicity at 70.5 h is -2.62%.

As for `Cc1cnccc1-c1cnn(CCNC(=O)C(C)(C)C)c1C1CC1`, the cytotoxicity at 70.5 h was -9.87%.

As for `CN1CCN(Cc2cn3c(n2)CN(C(=O)c2cccn2C)CC3)CC1`, the cytotoxicity at 70.5 h is -4.16%.

Consider `O=C(Nc1ccc(F)cc1F)Nc1c[nH]c(=O)[nH]c1=O`, for which the cytotoxicity at 70.5 h is -14.5%.

Regarding `CCN(Cc1ccncc1)C1CCCN(Cc2ccc(F)cc2Cl)C1` (stereo unspecified), the cytotoxicity at 70.5 h came to 1.69%.

For `COCC(=O)N1CCCC2(CCN(c3cncnc3)C2=O)C1` (stereo unspecified), the cytotoxicity at 70.5 h is -8.34%.

Consider `Cc1cc(N2CCN(C(=O)[C@@H]3C[C@@H]4C=C[C@H]3C4)CC2)nc2ccccc12`, for which the cytotoxicity at 70.5 h is -4.89%.

For the compound `O=C(NCC1CC1)c1cc2c(s1)CCN2C(=O)c1ccc(F)cc1`, the cytotoxicity at 70.5 h was -9.03%.

For the compound `CCc1noc(C(C)N2CCC(N3CCCC3)CC2)n1` (stereo unspecified), the cytotoxicity at 70.5 h was found to be 24.3%.

For `Nc1cc(CCC2CN(Cc3ccc4c(c3)OCCO4)CCO2)ccn1` (stereo unspecified), the cytotoxicity at 70.5 h is 0.977%.

On to `O=C(NCc1ccc(CO)cc1)C1CCOc2ccccc2C1` (stereo unspecified), for which the cytotoxicity at 70.5 h is 4.54%.

Regarding `Cc1nn(CCNC(=O)c2cc(C3CC3)[nH]n2)c(C)c1Cl`, the cytotoxicity at 70.5 h amounted to 3.19%.

As to `CCc1nnc2n1CCN(Cc1csc(-c3ncccn3)n1)C2`, the cytotoxicity at 70.5 h was -9.92%.

`O=C(Nc1ccccc1)N1C[C@H]2C[C@H](C(=O)N3CCCC3)[C@@H](C1)O2`: the cytotoxicity at 70.5 h is 15.5%.

Consider `CNC(=O)c1ccccc1NCc1ncnn1C`, for which the cytotoxicity at 70.5 h is -96.8%.

In the case of `COCc1noc(CCNC(=O)c2cc(C)c(C)[nH]c2=O)n1`, the cytotoxicity at 70.5 h was -7.79%.

On to `CN(C)CC1(O)CCN(C(=O)Cc2ccc(Cl)c(Cl)c2)C1` (stereo unspecified), for which the cytotoxicity at 70.5 h was determined as 10.5%.

In the case of `Clc1ccc(C(CNCc2cccnc2)n2cccn2)cc1` (stereo unspecified), the cytotoxicity at 70.5 h came out at 24.3%.

Regarding `c1ccc(NCc2cnc3n2CCN(CC2CCOC2)CC3)nc1` (stereo unspecified), the cytotoxicity at 70.5 h was -8.55%.

Take `O=C(Cn1cc(I)cn1)Nc1cccnc1`: the cytotoxicity at 70.5 h is -9.49%.

For the compound `CCc1ccc(C(C)NC(=O)CCc2nc(-c3nnc[nH]3)no2)cc1` (stereo unspecified), the cytotoxicity at 70.5 h is -4.48%.

Take `CCOCCCC(=O)NCc1cn2cc(Br)ccc2n1`: the cytotoxicity at 70.5 h was -3.96%.

In the case of `CCOc1cccc2c1OCC(C(=O)NS(=O)(=O)c1ccc(Cl)s1)=C2`, the cytotoxicity at 70.5 h is -7.24%.

As for `CCNc1ncc(C(=O)NCc2csc(-c3cnccn3)n2)cn1`, the cytotoxicity at 70.5 h was -10.4%.

On to `CC(=O)Nc1nc(CS(=O)(=O)CCCc2ccccc2)cs1`, for which the cytotoxicity at 70.5 h was -9.04%.

As for `Cc1[nH]c2ccccc2c1CCNc1ncnc2c1CCNCC2`, the cytotoxicity at 70.5 h came out at 0.111%.

In the case of `Cc1nn(C)c(N2CCOCC2)c1CNCc1ccnn1C`, the cytotoxicity at 70.5 h was -9.28%.

In the case of `COC[C@@H]1CCC[C@]12CN(Cc1cccc(C)n1)CCO2`, the cytotoxicity at 70.5 h was -14.3%.

Regarding `Cc1ccc(C)c(CS(=O)(=O)CC(=O)NCCCOC(C)C)c1`, the cytotoxicity at 70.5 h was -4.92%.

For the compound `Cc1nc(C)n(CC2CCCCN2CCCS(=O)(=O)N(C)C)n1` (stereo unspecified), the cytotoxicity at 70.5 h was 3.2%.

For `COCCN1CCC(C(=O)N(C)Cc2c[nH]c3ccc(C)cc23)C1` (stereo unspecified), the cytotoxicity at 70.5 h was -8.11%.

On to `CO[C@H]1CN(Cc2ccc(C)o2)[C@@H]2CCCO[C@H]12`, for which the cytotoxicity at 70.5 h is 13.3%.

`CC(=O)NCCOc1c(Cl)cccc1Cl`: the cytotoxicity at 70.5 h stood at 28.8%.

For `Cn1ncc2c1C(COCC1CC1)CN(Cc1ccc(F)cc1)C2` (stereo unspecified), the cytotoxicity at 70.5 h was found to be 25.3%.

For the compound `O=C(c1c[nH]c(=O)[nH]1)N1CCc2ccccc21`, the cytotoxicity at 70.5 h was -4.03%.

Regarding `CN1Cc2nnc(C3CCOCC3)n2C(Cc2c[nH]cn2)C1` (stereo unspecified), the cytotoxicity at 70.5 h is -1.52%.

Take `Cc1noc(C)c1CN1CCO[C@H]2[C@H](Oc3ncccc3F)CC[C@@H]21`: the cytotoxicity at 70.5 h was -9.05%.

Turning to `c1cnc(N2CCC3(CCN(CC4CCOC4)C3)CC2)nc1` (stereo unspecified), the cytotoxicity at 70.5 h was -17.9%.

On to `Cn1cccc1C(=O)N1CC[C@H]2[C@@H]1CCC(=O)N2c1ccccc1`, for which the cytotoxicity at 70.5 h stood at 11.6%.

For the compound `O=C1CC(c2ccncc2)c2c(sc3c2CCCC3)N1` (stereo unspecified), the cytotoxicity at 70.5 h is -13.1%.

In the case of `c1cnc(NC[C@@H]2CCC[C@@H]3CN(Cc4cc[nH]n4)C[C@@H]32)nc1`, the cytotoxicity at 70.5 h was -5.11%.

Take `O=C(NC1CC1)c1nc2c(o1)CN(c1ncccn1)C2`: the cytotoxicity at 70.5 h was found to be 1.1%.

For the compound `CCn1ncnc1C(C)Nc1cc(C2CC2)ncn1` (stereo unspecified), the cytotoxicity at 70.5 h is -13%.

Regarding `CN(C)c1ncc(-c2cc(C(=O)NCCC#N)n(CC3CC3)c2)cn1`, the cytotoxicity at 70.5 h is -12.9%.

In the case of `CC(C)OCc1ccc(CNc2cncc(-n3cccn3)n2)cc1`, the cytotoxicity at 70.5 h is -5.97%.

For the compound `CCS(=O)(=O)N1Cc2ccnn2CC(c2nc(C)no2)C1` (stereo unspecified), the cytotoxicity at 70.5 h was -9.51%.

On to `c1cnn(-c2ccc(CCNC3CCN(C4CC4)C3)cc2)c1` (stereo unspecified), for which the cytotoxicity at 70.5 h came to 0.821%.

For `CN1CCc2cc(C(CNS(=O)(=O)c3cccs3)N3CCCC3)ccc21` (stereo unspecified), the cytotoxicity at 70.5 h was found to be 30.7%.

`Cc1ccc(-c2csc(N)c2C#N)c(C)c1`: the cytotoxicity at 70.5 h was -15.8%.

With `Cc1c(F)cc(C(=O)O)cc1S(=O)(=O)Nc1ccc(F)c(C#N)c1`, the cytotoxicity at 70.5 h is -9.42%.

As to `CCOc1ncccc1C(=O)N(C)C1CCN(c2ccccn2)CC1`, the cytotoxicity at 70.5 h was determined as 2.78%.

Regarding `CCOc1ncccc1C(=O)N1CCC(Nc2ccc(C)nn2)CC1`, the cytotoxicity at 70.5 h was -2.98%.

In the case of `Cc1nnc(NC(=O)N2CCN(Cc3ccc(F)cc3)C(=O)C2)s1`, the cytotoxicity at 70.5 h was 1.21%.

Take `O=S(=O)(NC1CCN(CC(F)(F)F)C1)c1cc(F)cc(F)c1` (stereo unspecified): the cytotoxicity at 70.5 h was found to be 12.7%.

For the compound `O=C(Nc1ccnn1C1CCCC1)c1ccc(NC2CC2)nc1`, the cytotoxicity at 70.5 h stood at 3.1%.

With `CN(C)c1ccc(NC(=O)NCc2cccs2)cn1`, the cytotoxicity at 70.5 h was -6.16%.

As to `O=C(O)c1ccc(CC2CCN(S(=O)(=O)N3CCOCC3)C2)cc1` (stereo unspecified), the cytotoxicity at 70.5 h is -5.44%.

With `CC(=O)N1CC2(CCCN(Cc3ccc(Cl)cc3)C2)Cc2ccccc21` (stereo unspecified), the cytotoxicity at 70.5 h was found to be 5.61%.

`Cc1cccc(N2Cc3c(NC4CCCC4)ncnc3N(C)CC2=O)c1`: the cytotoxicity at 70.5 h was -4.33%.

As to `CCc1nnc(C2Cc3ccccc3CN2Cc2cc(C)no2)o1` (stereo unspecified), the cytotoxicity at 70.5 h was -4.33%.

For the compound `COc1cccc(CC2(C(=O)O)CCN(c3nccs3)CC2)c1`, the cytotoxicity at 70.5 h is -7.32%.

For `COc1ccc(Oc2ccc(CNC(=O)C(C)n3cncn3)cn2)cc1` (stereo unspecified), the cytotoxicity at 70.5 h is -0.159%.

In the case of `Cc1[nH]c2ccc(CNc3cc(C(=O)NC(C)C)ccn3)cc2c1C`, the cytotoxicity at 70.5 h is -1.62%.

As for `CCN1CC(COC(=O)c2cc(C)nn2CC)CC1=O` (stereo unspecified), the cytotoxicity at 70.5 h is -7.36%.
